Data from publication PMC6944710, “In vitro and in silico insights into tyrosinase inhibitors with (E)-benzylidene-1-indanone derivatives” (Computational and Structural Biotechnology Journal, 2019).
“Also recorded” adds a separate entry of the source. Where two headings read alike, the source gives them in different places.

Experiments:
[1] = target: mushroom tyrosinase; test: Mushroom tyrosinase inhibitory assay (L-tyrosine or L-DOPA as substrate); type: biochemical, Agaricus bisporus; conditions: for IC50: mean ± SEM of triplicate experiments; for Tyrosinase inhibitory activity (in words) / Inhibitory effect at the concentration of 200 µM: mushroom tyrosinase; for Tyrosinase inhibitory activity (in words): L-tyrosine and L-DOPA
Experimental: Tyrosinase inhibitory activity assay was performed using mushroom tyrosinase as described previously, with minor modification, [36]. […] […] The reaction mixtures were incubated at 37 °C for 30 min. After that, the amount of dopachrome produced in each well was measured by spectrophotometric analysis at 492 nm (OD492) using a microplate reader.

[2] = target: mushroom tyrosinase; test: Enzyme kinetic analysis with tyrosinase (Lineweaver-Burk and Dixon plots); type: biochemical, Agaricus bisporus; conditions: L-DOPA as substrate
Experimental: To determine the kinetic mechanisms of inhibition, two complimentary kinetics methods were used: Lineweaver–Burk and Dixon plots, [38], [39]. Using Lineweaver-Burk plots (double reciprocal plots), the inhibition type of BID3 was determined using various concentrations of L-DOPA (0.125, 0.25, 0.5, and 1 mM), as substrates, in the absence and presence of various concentrations of BID3 (1, 2, and 4 μM). A Dixon plot (single reciprocal plots) for tyrosinase inhibition was obtained in the presence of various concentrations of L-DOPA (0.125, 0.25, 0.5, and 1 mM). The concentrations of BID3 were 1, 2, and 4 µM. The enzymatic procedures consisted of the previously described tyrosinase assay methods. The inhibition constant (Ki) was determined from the interpretation of Dixon plots.

[3] = test system: B16F10 melanoma cells; test: Melanin contents assay in α-MSH and IBMX-stimulated cells; type: cell-based, Murine; conditions: BID3 1, 5, and 20 µM (methods: 1, 5, and 10 µM), 48 h
Experimental: Melanin content was determined as described previously. B16F10 melanoma cells (2 × 10^5 cells/well) were seeded in 6-well culture plates. […] After washed twice with PBS, the cells were detached by incubation in Trypsin/EDTA, and the pellets were dissolved in 100 µL of 1 N NaOH, and then incubated at 60 °C for 1 h and mixed to solubilize the melanin. The melanin contents were determined by measuring absorbance at 405 nm by using the ELISA reader (TECAN, Sunrise, Austria). The melanin content was calculated using the following equation: (Δsample/Δcontrol) × 100%. All determinations were performed in triplicate.

[4] = target: T1, cellular tyrosinase of B16F10 cells (Mus musculus, UniProt P11344); test: Cellular tyrosinase activity in α-MSH and IBMX-stimulated cells; type: cell-based, Murine; conditions: BID3 1, 5, and 20 µM (methods: 1, 5, and 10 µM), 48 h
T1 construct: endogenous in cells; host or cells: B16F10 melanoma cells
T1 sequence (P11344 19-533): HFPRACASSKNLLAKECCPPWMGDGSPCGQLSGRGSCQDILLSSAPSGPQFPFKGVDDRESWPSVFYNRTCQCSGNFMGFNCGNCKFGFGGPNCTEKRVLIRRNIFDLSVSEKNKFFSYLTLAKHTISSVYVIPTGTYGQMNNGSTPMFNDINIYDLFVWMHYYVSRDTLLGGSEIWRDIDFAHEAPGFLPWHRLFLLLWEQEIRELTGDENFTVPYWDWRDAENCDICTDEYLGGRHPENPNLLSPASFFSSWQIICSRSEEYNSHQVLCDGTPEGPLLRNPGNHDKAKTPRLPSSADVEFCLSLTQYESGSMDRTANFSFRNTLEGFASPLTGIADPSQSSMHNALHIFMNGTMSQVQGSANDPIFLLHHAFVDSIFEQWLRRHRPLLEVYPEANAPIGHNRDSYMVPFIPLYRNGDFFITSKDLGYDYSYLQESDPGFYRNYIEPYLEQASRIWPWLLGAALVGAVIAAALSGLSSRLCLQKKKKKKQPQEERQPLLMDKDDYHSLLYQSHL
Experimental: Cellular tyrosinase activity was assessed as described previously, with slight modifications, [45]. Briefly, 2 × 10^5/cells were plated in 6-well dishes and incubated overnight. […] After being rinsed twice with PBS, the cells were lysed with 100 µL lysis solution containing 50 mM phosphate buffer (pH 6.5), 0.1 mM phenylmethylsulfonylfluoride (PMSF), and 1% Triton X-100 and frozen at −80 °C for 30 min. Lysates were thawed and centrifuged at 12,000 rpm for 30 min at 4 °C. […] After incubation at 37 °C for 30 min, the optical density at 492 nm was measured using an ELISA reader (TECAN, Salzburg, Austria). The protein concentration was determined using BCA protein assay reagent using […] (Thermo Scientific, Rockford, IL, USA).

[5] = test system: B16F10 melanoma cells; test: Cell viability assay (EZ-Cytox); type: cell-based, Murine; conditions: 1–20 µM, 24 h and 48 h
Experimental: Murine melanoma B16F10 cells were purchased from the Korean Cell Line Bank (KCLB, Seoul, Korea) and cultured in DMEM supplemented with 10% FBS and 1% streptomycin, and then incubated at 37 °C, humidified with 5% atmospheric CO2. Cell viability analyses were performed as previously described. Briefly, cells seeded at a density of 1 × 10^4 cells/well in a 96-well plate for 24 h. On the following day, the cells were exposed to different concentrations of BID3 and incubated for 24 or 48 h, respectively. Then, 10 µL EZ-Cytox solution was added to each well and the cells were incubated for 2–4 h. Absorbance was determined using ELISA at a wavelength of 450 nm. Each assay was performed in triplicate.

[6] = test system: tyrosinase; conditions: cited from earlier work
[7] = L-DOPA substrate, read-out: IC50 (μM), L-DOPA as substrate (diphenolase activity)
[8] = L-tyrosine substrate, read-out: IC50 (μM), L-tyrosine as substrate (monophenolase activity)

IC50 [1, 7]	IC50 [1, 8]	melting point	SMILES	other results
130 ± 5.39 µM	39.7 ± 3.71 µM		O=C1/C(=C/c2ccc(O)cc2)Cc2ccccc21 [BID1, (E)-2-(4-Hydroxybenzylidene)-2,3-dihydro-1H-inden-1-one]	
52.9 ± 2.62 µM	41.3 ± 3.03 µM		O=C1/C(=C/c2ccc(O)c(O)c2)Cc2ccccc21 [BID2, (E)-2-(3,4-Dihydroxybenzylidene)-2,3-dihydro-1H-inden-1-one]	
1.39 ± 4e-05 µM	0.034 ± 0.00224 µM		O=C1/C(=C/c2ccc(O)cc2O)Cc2ccccc21 [BID3, (E)-2-(2,4-Dihydroxybenzylidene)-2,3-dihydro-1H-inden-1-one]	Ki ([2]; Dixon plot): 2.4 µM; Type of tyrosinase inhibition ([2]; Lineweaver-Burk and Dixon plots): mixed-type inhibition; also recorded: mixed-type inhibitor; Melanin contents [3]: decreased; also recorded: concentration dependently decrease; Cellular tyrosinase activity [4]: inhibited; also recorded: concentration dependently decrease; Cytotoxic effect on B16F10 cells [5]: no significant cytotoxic effect; also recorded: without inducing cytotoxicity
> 200 µM	73.5 ± 5.78 µM		COc1cc(/C=C2\Cc3ccccc3C2=O)ccc1O [BID4, (E)-2-(4-Hydroxy-3-methoxybenzylidene)-2,3-dihydro-1H-inden-1-one]	Tyrosinase inhibitory activity (in words) [1]: moderate tyrosinase inhibitory activity
> 200 µM	> 200 µM	135.8 to 136.4 °C	CCOc1cc(/C=C2\Cc3ccccc3C2=O)ccc1O [BID5, (E)-2-(3-Ethoxy-4-hydroxybenzylidene)-2,3-dihydro-1H-inden-1-one]	
50.8 ± 2.16 µM	5 ± 0.91 µM		COc1ccc(/C=C2\Cc3ccccc3C2=O)cc1O [BID6, (E)-2-(3-Hydroxy-4-methoxybenzylidene)-2,3-dihydro-1H-inden-1-one]	
> 200 µM	> 200 µM		COc1ccc(/C=C2\Cc3ccccc3C2=O)cc1 [BID7, (E)-2-(4-Methoxybenzylidene)-2,3-dihydro-1H-inden-1-one]	
> 200 µM	> 200 µM	176.5 to 177.2 °C	COc1ccc(/C=C2\Cc3ccccc3C2=O)cc1OC [BID8, (E)-2-(3,4-Dimethoxybenzylidene)-2,3-dihydro-1H-inden-1-one]	
96.9 ± 9.78 µM	> 200 µM		COc1ccc(/C=C2\Cc3ccccc3C2=O)c(OC)c1 [BID9, (E)-2-(2,4-Dimethoxybenzylidene)-2,3-dihydro-1H-inden-1-one]	
> 200 µM	> 200 µM	164.4 to 165.2 °C	COc1cc(/C=C2\Cc3ccccc3C2=O)cc(OC)c1OC [BID10, (E)-2-(3,4,5-Trimethoxybenzylidene)-2,3-dihydro-1H-inden-1-one]	
> 200 µM	75.2 ± 2.24 µM	190.2 to 191.1 °C	COc1cc(/C=C2\Cc3ccccc3C2=O)cc(OC)c1O [BID11, (E)-2-(4-Hydroxy-3,5-dimethoxybenzylidene)-2,3-dihydro-1H-inden-1-one]	Tyrosinase inhibitory activity (in words) [1]: moderate tyrosinase inhibitory activity
> 200 µM	> 200 µM	225 to 226.2 °C	O=C1/C(=C/c2ccc(O)c(Br)c2)Cc2ccccc21 [BID12, (E)-2-(3-Bromo-4-hydroxybenzylidene)-2,3-dihydro-1H-inden-1-one]	
75.3 ± 7.94 µM	> 200 µM	267.4 to 268.1 °C	O=C1/C(=C/c2cc(Br)c(O)c(Br)c2)Cc2ccccc21 [BID13, (E)-2-(3,5-Dibromo-4-hydroxybenzylidene)-2,3-dihydro-1H-inden-1-one]	
> 200 µM	> 200 µM		O=C(O)/C=C/c1ccccc1 [Cinnamic acid, trans-cinnamic acid, reference compound]	Inhibitory effect at the concentration of 200 µM [1]: no inhibitory effect; Reported type of tyrosinase inhibition [6]: mixed-mode tyrosinase inhibitor
			O=c1cc(CO)occ1O [Kojic acid, kojic acid]	Reported type of tyrosinase inhibition [6]: competitive type inhibitor
> 200 µM	> 200 µM		O=C(O)c1ccccc1C(=O)O [Phthalic acid, phthalic acid, reference compound]	Inhibitory effect at the concentration of 200 µM [1]: no inhibitory effect; Reported type of tyrosinase inhibition [6]: mixed-mode tyrosinase inhibitor
